Key:
Type in all cases: in vivo
Abutilon theophrasti [1] = assay: Herbicidal action post-emergence (greenhouse pot trial); conditions: application rate 80 g/ha, scored visually after about 3 weeks vs untreated controls
Outline: (§1)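 Sowing in sandy loam, then 2–3 weeks of controlled greenhouse growth. Next, one-leaf-stage plants received a foliar spray of the WP- or EC-formulated compound with 0.5% additive (600 L/ha water, application rate of 80 g/ha or below). Finally, after about 3 weeks under optimal conditions, effect was judged by eye against controls.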

Alopecurus myosuroides [2] = assay: as above; conditions: application rate 80 g/ha, scored visually after about 3 weeks vs untreated controls
Outline: as §1

Amaranthus retroflexus [3] = assay: as above; conditions: application rate 80 g/ha, scored visually after about 3 weeks vs untreated controls
Outline: as §1

Echinochloa crus-galli [4] = assay: as above; conditions: application rate 80 g/ha, scored visually after about 3 weeks vs untreated controls
Outline: as §1

Lolium rigidum [5] = assay: as above; conditions: application rate 80 g/ha, scored visually after about 3 weeks vs untreated controls
Outline: as §1

Matricaria inodora [6] = assay: as above; conditions: application rate 80 g/ha, scored visually after about 3 weeks vs untreated controls
Outline: as §1

Pharbitis purpurea [7] = assay: as above; conditions: application rate 80 g/ha
Outline: as §1

Polygonum convolvulus = assay: as above; conditions: application rate 80 g/ha, scored visually after about 3 weeks vs untreated controls
Outline: as §1

Setaria viridis [8] = assay: as above; conditions: application rate 80 g/ha, scored visually after about 3 weeks vs untreated controls
Outline: as §1

Stellaria media [9] = assay: as above; conditions: application rate 80 g/ha, scored visually after about 3 weeks vs untreated controls
Outline: as §1

Veronica persica [10] = assay: as above; conditions: application rate 80 g/ha
Outline: as §1

Viola tricolor [11] = assay: as above; conditions: application rate 80 g/ha
Outline: as §1

Oryza sativa = assay: Crop compatibility post-emergence (greenhouse pot trial)
Outline: (§2)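 Visual % damage vs untreated controls, ~3 wk post-spray (100% = plants died, 0% = as control). Plants in sandy loam, greenhouse, sprayed at one-leaf stage (2–3 wk after sowing); WP/EC in water + 0.5% additive, 600 L/ha.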

Triticum aestivum = assay: as above
Outline: as §2

Abutilon theophrasti [12] = assay: Herbicidal action pre-emergence (greenhouse pot trial); conditions: application rate 320 g/ha, scored after about 3 weeks
Outline: (§3)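 Application rates of 320 g/ha or lower were used, with compounds delivered onto covering soil before weed emergence. After roughly three weeks in the greenhouse, damage was judged by eye as a percentage versus untreated plants.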

Alopecurus myosuroides [13] = assay: as above; conditions: application rate 320 g/ha, scored after about 3 weeks
Outline: as §3

Amaranthus retroflexus [14] = assay: as above; conditions: application rate 320 g/ha, scored after about 3 weeks
Outline: as §3

Avena fatua = assay: as above; conditions: application rate 320 g/ha
Outline: as §3

Cyperus esculentus = assay: as above; conditions: application rate 320 g/ha
Outline: as §3

Echinochloa crus-galli [15] = assay: as above; conditions: application rate 320 g/ha, scored after about 3 weeks
Outline: as §3

Hordeum murinum [16] = assay: as above; conditions: application rate 320 g/ha
Outline: as §3

Lolium rigidum [17] = assay: as above; conditions: application rate 320 g/ha
Outline: as §3

Matricaria inodora [18] = assay: as above; conditions: application rate 320 g/ha, scored after about 3 weeks
Outline: as §3

Pharbitis purpurea [19] = assay: as above; conditions: application rate 320 g/ha
Outline: as §3

Setaria viridis [20] = assay: as above; conditions: application rate 320 g/ha, scored after about 3 weeks
Outline: as §3

Stellaria media [21] = assay: as above; conditions: application rate 320 g/ha, scored after about 3 weeks
Outline: as §3

Veronica persica [22] = assay: as above; conditions: application rate 320 g/ha
Outline: as §3

Viola tricolor [23] = assay: as above; conditions: application rate 320 g/ha, scored after about 3 weeks
Outline: as §3

Zea mays [24] = assay: Crop compatibility post-emergence (greenhouse pot trial); conditions: application rate 20 g/ha
Outline: as §2

Zea mays [25] = assay: Crop compatibility pre-emergence (greenhouse pot trial); conditions: effect vs untreated controls
Outline: (§4)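 Compounds, formulated as WP or EC plus 0.5% additive, applied to covering soil after sowing at a water rate of 600 L/ha. After roughly 3 weeks under greenhouse conditions, visual % injury to crops rated against untreated plants, 0% meaning like control.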

Digitaria sanguinalis [26] = assay: Herbicidal action post-emergence (greenhouse pot trial); conditions: application rate 80 g/ha
Outline: as §1

Hordeum murinum [27] = assay: as above; conditions: application rate 80 g/ha, scored visually after about 3 weeks vs untreated controls
Outline: as §1

Digitaria sanguinalis [28] = assay: Herbicidal action pre-emergence (greenhouse pot trial); conditions: application rate 80 g/ha
Outline: as §3

Glycine max = assay: Crop compatibility pre-emergence (greenhouse pot trial); conditions: effect vs untreated controls
Outline: as §4

Structure (SMILES)	Abutilon theophrasti (Efficacy in %) (Abutilon theophrasti [1]) [%]	Alopecurus myosuroides (Efficacy in %) (Alopecurus myosuroides [2]) [%]	Amaranthus retroflexus (Efficacy in %) (Amaranthus retroflexus [3]) [%]	Echinochloa crus-galli (Efficacy in %) (Echinochloa crus-galli [4]) [%]	Lolium rigidum (Efficacy in %) (Lolium rigidum [5]) [%]	Matricaria inodora (Efficacy in %) (Matricaria inodora [6]) [%]	Pharbitis purpurea (Efficacy in %) (Pharbitis purpurea [7]) [%]	Polygonum convolvulus (Efficacy in %) (Polygonum convolvulus) [%]	Setaria viridis (Efficacy in %) (Setaria viridis [8]) [%]	Stellaria media (Efficacy in %) (Stellaria media [9]) [%]	Veronica persica (Efficacy in %) (Veronica persica [10]) [%]	Viola tricolor (Efficacy in %) (Viola tricolor [11]) [%]	Abutilon theophrasti (Efficacy in %) (Abutilon theophrasti [12]) [%]	Amaranthus retroflexus (Efficacy in %) (Amaranthus retroflexus [14]) [%]	Echinochloa crus-galli (Efficacy in %) (Echinochloa crus-galli [15]) [%]	Hordeum murinum (Efficacy in %) (Hordeum murinum [16]) [%]	Lolium rigidum (Efficacy in %) (Lolium rigidum [17]) [%]	Matricaria inodora (Efficacy in %) (Matricaria inodora [18]) [%]	Pharbitis purpurea (Efficacy in %) (Pharbitis purpurea [19]) [%]	Setaria viridis (Efficacy in %) (Setaria viridis [20]) [%]	further results
CC(Sc1cc(-n2c(=O)cc(C(F)(F)F)n(C)c2=O)c(F)cc1Cl)C(=O)NCC1CCCS1(=O)=O (stereo not shown) [I.1-275]	100	90	100	90	80	100	100	100	100	100	100	100	100	100	100	90	90	100	100	100	Oryza sativa (Efficacy in %) (Oryza sativa; application rate 20 g/ha): 20%; Triticum aestivum (Efficacy in %) (Triticum aestivum; application rate 20 g/ha): 20%; Alopecurus myosuroides (Efficacy in %) (Alopecurus myosuroides [13]): 100%; Avena fatua (Efficacy in %) (Avena fatua): 100%; Cyperus esculentus (Efficacy in %) (Cyperus esculentus): 80%; Stellaria media (Efficacy in %) (Stellaria media [21]): 100%; Veronica persica (Efficacy in %) (Veronica persica [22]): 100%; Viola tricolor (Efficacy in %) (Viola tricolor [23]): 100%
COCCOC(=O)C(C)Sc1cc(-n2c(=O)cc(C(F)(F)F)n(C)c2=O)c(F)cc1Cl (stereo not shown) [I.1-1]	100	80	100	100	90	100	100	100	100	100	100	100	100	100	100	90	80	100	100	100	Oryza sativa (Efficacy in %) (Oryza sativa; application rate 5 g/ha): 20%; Triticum aestivum (Efficacy in %) (Triticum aestivum; application rate 5 g/ha): 20%; Zea mays (Efficacy in %) (Zea mays [24]): 20%; Alopecurus myosuroides (Efficacy in %) (Alopecurus myosuroides [13]): 80%; Avena fatua (Efficacy in %) (Avena fatua): 90%; Cyperus esculentus (Efficacy in %) (Cyperus esculentus): 100%; Stellaria media (Efficacy in %) (Stellaria media [21]): 100%; Veronica persica (Efficacy in %) (Veronica persica [22]): 100%; Viola tricolor (Efficacy in %) (Viola tricolor [23]): 100%; Zea mays (Efficacy in %) (Zea mays [25]; application rate 20 g/ha): 20%
CCOCCCOC(=O)C(C)Sc1cc(-n2c(=O)cc(C(F)(F)F)n(C)c2=O)c(F)cc1Cl (stereo not shown) [I.1-27]	100	90	100	100	80	100	100	100	100	100	100	100	100	100	100	80	90	100	100	100	Digitaria sanguinalis (Efficacy in %) (Digitaria sanguinalis [26]): 100%; Hordeum murinum (Efficacy in %) (Hordeum murinum [27]): 80%; Oryza sativa (Efficacy in %) (Oryza sativa; application rate 5 g/ha): 10%; Triticum aestivum (Efficacy in %) (Triticum aestivum; application rate 5 g/ha): 10%; Alopecurus myosuroides (Efficacy in %) (Alopecurus myosuroides [13]): 80%; Digitaria sanguinalis (Efficacy in %) (Digitaria sanguinalis [28]): 100%; Stellaria media (Efficacy in %) (Stellaria media [21]): 100%; Veronica persica (Efficacy in %) (Veronica persica [22]): 100%; Viola tricolor (Efficacy in %) (Viola tricolor [23]): 100%; Glycine max (Efficacy in %) (Glycine max; application rate 80 g/ha): 20%; Zea mays (Efficacy in %) (Zea mays [25]; application rate 80 g/ha): 0%
COCCCOC(=O)C(C)Sc1cc(-n2c(=O)cc(C(F)(F)F)n(C)c2=O)c(F)cc1Cl (stereo not shown) [I.1-26]	100	80	100	100	90	100	100	100	100	100	100	100	100	100	100	100	90	100	100	100	Digitaria sanguinalis (Efficacy in %) (Digitaria sanguinalis [26]): 100%; Hordeum murinum (Efficacy in %) (Hordeum murinum [27]): 90%; Oryza sativa (Efficacy in %) (Oryza sativa; application rate 5 g/ha): 10%; Triticum aestivum (Efficacy in %) (Triticum aestivum; application rate 5 g/ha): 20%; Avena fatua (Efficacy in %) (Avena fatua): 80%; Digitaria sanguinalis (Efficacy in %) (Digitaria sanguinalis [28]): 100%; Stellaria media (Efficacy in %) (Stellaria media [21]): 100%; Veronica persica (Efficacy in %) (Veronica persica [22]): 100%; Viola tricolor (Efficacy in %) (Viola tricolor [23]): 100%; Glycine max (Efficacy in %) (Glycine max; application rate 20 g/ha): 0%; Zea mays (Efficacy in %) (Zea mays [25]; application rate 80 g/ha): 10%
CC1CC(COC(=O)C(C)Sc2cc(-n3c(=O)cc(C(F)(F)F)n(C)c3=O)c(F)cc2Cl)CO1 (stereo not shown) [I.1-73]	100	90	100	100	90	100	100	100	100	100	100	100	100	100	100	90	100	100	100	100	Digitaria sanguinalis (Efficacy in %) (Digitaria sanguinalis [26]): 100%; Hordeum murinum (Efficacy in %) (Hordeum murinum [27]): 80%; Oryza sativa (Efficacy in %) (Oryza sativa; application rate 20 g/ha): 5%; Triticum aestivum (Efficacy in %) (Triticum aestivum; application rate 80 g/ha): 20%; Avena fatua (Efficacy in %) (Avena fatua): 90%; Digitaria sanguinalis (Efficacy in %) (Digitaria sanguinalis [28]): 100%; Stellaria media (Efficacy in %) (Stellaria media [21]): 100%; Veronica persica (Efficacy in %) (Veronica persica [22]): 100%; Viola tricolor (Efficacy in %) (Viola tricolor [23]): 100%; Glycine max (Efficacy in %) (Glycine max; application rate 80 g/ha): 0%; Zea mays (Efficacy in %) (Zea mays [25]; application rate 80 g/ha): 0%
